# Data taken from publication PMC3038857, “Using Nuclear Receptor Activity to Stratify Hepatocarcinogens” (PLoS ONE, 2011).
# Read-outs that look alike come from different tables or passages of the source.
# Assays:
# [1] = test system: liver; details: cited from earlier work
# [2] = test system: liver; details: in vivo
# [3] = test system: AhR; experiment: Aggregate nuclear receptor activity: AhR; details: aggregate human NR activity, in words
# Description: (§1) To summarize the activity of chemicals across the NR superfamily we aggregated the ToxCast assays for genes and NR groups as follows: retinoic X receptor-like (RXR; [drawing 5]; NR2B); peroxisome proliferator-activated receptor-like (PPAR; [drawing 6]; NR1C); constitutive androstane receptor ( [drawing 7]; [drawing 8]; [drawing 9] ); pregnane X receptor ( [drawing 10]; [drawing 11] ); liver X receptor-like (LXR; [drawing 12] , FXR; NR1H); and steroid receptor-like (SR; [drawing 13] , [drawing 14] , [drawing 15] ). These are shown visually in Figure 1(a). As there were differences in the number and types of assays for each group, aggregate activity was calculated as the average potency across the assays measured by the AC50 or LEC (described in Methods). This approach aggregated NR binding, activation, agonism or antagonism results into a single assessment of activity.
# (§2) All data used in this analysis are publicly available from the ToxCast website (www.epa.gov/toxcast). The analysis was conducted using the R statistical language (www.r-project.org). For each chemical [drawing 77] , and assay [drawing 78] combination we derived either the AC50 (50% maximal activity concentration) or LEC (Lowest Effective Concentration) in [drawing 79] M denoted as, [drawing 80] . All chemicals are provided in Dataset S3 and all assays are given in Dataset S1. The procedure for evaluating the quality of [drawing 81] are described in the supplementary methods (Text S1) and all assay results are provided in Dataset S2. In order to facilitate comparison across the assays the [drawing 82] were transformed by the formula, [drawing 83] where [drawing 84] represents a the potency on an ascending scale, and [drawing 85] is the maximum concentration (lowest potency) across the data set.
# (§3) The aggregate NR activity [drawing 86] , where [drawing 87] , was calculated using assays [drawing 88] . The aggregate scaled NR activity score for each chemical [drawing 89] was calculated as the average concentration value across the assays, scaled by the maximum value across all chemicals using Equation 1. [drawing 90] (1)
# [4] = test system: CAR; experiment: Aggregate nuclear receptor activity: CAR; details: aggregate human NR activity, in words
# Description: as §1, §2, §3
# [5] = test system: PPAR; experiment: Aggregate nuclear receptor activity: PPAR; details: aggregate human NR activity, in words
# Description: as §1, §2, §3
# [6] = test system: PXR; experiment: Aggregate nuclear receptor activity: PXR; set-up: species or system human; details: aggregate human NR activity, in words
# Description: as §1, §2, §3
# [7] = test system: SR (steroid receptor-like); experiment: Aggregate nuclear receptor activity: SR; details: aggregate human NR activity, in words
# Description: as §1, §2, §3
# [8] = target: T1, CAR (NR1I3) (Homo sapiens, UniProt Q14994); experiment: ATG_CAR_TRANS: Factorial reporter gene assay (HepG2); format: cell-based; set-up: endogenous in cells; host or cells: HepG2; details: HepG2 reporter
# T1 sequence (Q14994 1-352): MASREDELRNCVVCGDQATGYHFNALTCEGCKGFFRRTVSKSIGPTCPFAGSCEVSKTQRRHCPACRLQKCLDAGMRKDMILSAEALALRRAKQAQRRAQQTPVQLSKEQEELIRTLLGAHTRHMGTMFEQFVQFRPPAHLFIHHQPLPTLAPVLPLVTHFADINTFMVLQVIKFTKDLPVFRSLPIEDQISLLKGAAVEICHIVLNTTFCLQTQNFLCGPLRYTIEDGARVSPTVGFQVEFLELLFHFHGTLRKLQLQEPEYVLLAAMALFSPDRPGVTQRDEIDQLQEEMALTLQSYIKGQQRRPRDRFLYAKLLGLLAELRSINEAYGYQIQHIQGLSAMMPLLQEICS
# Experimental: (§4) A multiple reporter transcription unit (MRTU) library consisting of 48 transcription factor binding sites was transfected into the HepG2 human liver hepatoma cell line. In addition to the cis-acting reporter genes (CIS), a modification of the approach was used to generate a trans-system (TRANS) with a mammalian one-hybrid assay consisting of an additional 25 MRTU library reporting the activity of nuclear receptor super-family members. […] These assays were performed by Attagene Inc. (Morrisville NC) under contract to EPA.
# (§5) In addition to the cis-acting reporter genes (CIS), a modification of the approach was used to generate a trans-system (TRANS) with a mammalian one-hybrid assay consisting of an additional 25 MRTU library reporting the activity of nuclear receptor super-family members. […] Chemicals were then tested in the CIS and TRANS assays at seven concentrations starting at the MTC and followed by three-fold serial dilutions. These assays were performed by Attagene Inc. (Morrisville NC) under contract to EPA. Detailed description of the methods, data and analysis methods for this dataset will be presented in a separate publication.
# [9] = target: T2, ESR1 (estrogen receptor 1) (Homo sapiens, UniProt P03372); experiment: ATG_ERE_CIS: Factorial reporter gene assay (HepG2); format: cell-based; details: HepG2 reporter
# T2 construct: expressed in transfected cells; host or cells: HepG2
# T2 sequence (P03372 whole entry): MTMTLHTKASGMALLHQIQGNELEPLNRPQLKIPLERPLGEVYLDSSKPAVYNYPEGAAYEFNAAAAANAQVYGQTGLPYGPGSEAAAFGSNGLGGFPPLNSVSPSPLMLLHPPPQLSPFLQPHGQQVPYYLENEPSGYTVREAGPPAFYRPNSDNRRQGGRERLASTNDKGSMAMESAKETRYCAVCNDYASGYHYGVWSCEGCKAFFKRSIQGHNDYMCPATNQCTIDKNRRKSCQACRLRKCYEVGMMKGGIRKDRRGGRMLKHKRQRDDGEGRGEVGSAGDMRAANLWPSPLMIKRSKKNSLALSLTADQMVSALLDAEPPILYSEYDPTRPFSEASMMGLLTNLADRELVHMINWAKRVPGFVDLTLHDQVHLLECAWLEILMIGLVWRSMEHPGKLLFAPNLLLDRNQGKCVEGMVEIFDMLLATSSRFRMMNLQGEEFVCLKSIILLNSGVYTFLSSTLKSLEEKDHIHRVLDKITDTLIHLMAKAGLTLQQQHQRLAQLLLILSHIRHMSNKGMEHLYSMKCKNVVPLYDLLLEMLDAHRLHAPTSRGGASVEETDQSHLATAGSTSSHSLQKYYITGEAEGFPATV
# Experimental: as §4, §5
# [10] = target: T3, PXR (NR1I2) (Homo sapiens, UniProt O75469); experiment: ATG_PXRE_CIS: Factorial reporter gene assay (HepG2); format: cell-based; set-up: endogenous in cells; host or cells: HepG2; details: HepG2 reporter
# T3 sequence (O75469 1-434): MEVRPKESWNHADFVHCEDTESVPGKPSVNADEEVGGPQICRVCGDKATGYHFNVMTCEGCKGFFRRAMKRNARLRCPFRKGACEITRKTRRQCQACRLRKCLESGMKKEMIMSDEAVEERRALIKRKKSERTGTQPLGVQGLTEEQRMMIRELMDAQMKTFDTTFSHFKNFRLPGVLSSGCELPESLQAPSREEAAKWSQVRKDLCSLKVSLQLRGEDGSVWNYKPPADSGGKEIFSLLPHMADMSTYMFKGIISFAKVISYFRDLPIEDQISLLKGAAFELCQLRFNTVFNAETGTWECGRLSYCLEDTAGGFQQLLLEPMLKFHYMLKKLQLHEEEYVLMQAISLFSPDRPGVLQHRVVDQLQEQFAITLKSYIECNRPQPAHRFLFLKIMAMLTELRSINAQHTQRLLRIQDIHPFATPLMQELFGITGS
# Outline: (§6)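 Compounds at seven concentrations (top at MTC, threefold serial) were applied to transfected HepG2 hepatoma cells, with PXRE scored by cis-element reporters and ERRg, FXR and PPARg scored by trans one-hybrid nuclear receptor reporters.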
# [11] = target: T2, ESR1 (estrogen receptor 1); experiment: ATG_ERa_TRANS: Factorial reporter gene assay (HepG2); format: cell-based; details: HepG2 reporter
# Outline: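 Seven concentrations per chemical, three-fold dilutions down from the MTC, were tested in HepG2 hepatoma cells. Those cells carried a multiple reporter transcription unit library, read either as cis transcription-factor-site reporters or as a trans mammalian one-hybrid panel for nuclear receptors.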
# [12] = test system: Rat Liver; details: chronic study, rat liver; ref ToxRefDB; cited from earlier work
# [13] = target: T4, PPARG (peroxisome proliferator-activated receptor gamma) (Homo sapiens, UniProt P37231); experiment: ATG_PPARg_TRANS: Factorial reporter gene assay (HepG2); format: cell-based; details: HepG2 reporter
# T4 construct: expressed in transfected cells; host or cells: HepG2
# T4 sequence (P37231 1-505): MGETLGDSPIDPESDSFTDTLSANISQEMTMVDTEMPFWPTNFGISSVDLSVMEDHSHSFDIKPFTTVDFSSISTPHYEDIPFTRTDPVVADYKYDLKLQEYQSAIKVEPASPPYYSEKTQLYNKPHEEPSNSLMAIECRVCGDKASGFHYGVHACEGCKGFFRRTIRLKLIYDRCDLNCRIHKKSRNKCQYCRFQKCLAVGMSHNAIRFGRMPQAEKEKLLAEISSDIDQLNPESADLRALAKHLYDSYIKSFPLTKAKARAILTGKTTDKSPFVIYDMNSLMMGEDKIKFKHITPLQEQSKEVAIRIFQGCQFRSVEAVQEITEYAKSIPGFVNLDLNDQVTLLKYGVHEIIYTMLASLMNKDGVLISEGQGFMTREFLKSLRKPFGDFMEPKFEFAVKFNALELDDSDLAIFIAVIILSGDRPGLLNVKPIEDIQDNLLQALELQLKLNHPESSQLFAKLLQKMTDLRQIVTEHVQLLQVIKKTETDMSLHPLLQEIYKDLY
# Outline: as §6
# [14] = test system: Rat Liver; details: chronic study, rat liver; ref ToxRefDB; cited from earlier work; remark: listed apart in the source
# [15] = test system: Rat Liver; details: chronic study, rat liver; ref ToxRefDB; cited from earlier work; remark: listed apart in the source
# [16] = target: T3, PXR (NR1I2); experiment: NVS_NR_hPXR: Human PXR Fluormone PXR (SXR) green (cell-free HTS); format: binding
# Outline: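 Cell-free biochemical binding assays; chemicals first screened at a single concentration of 25 […] M in duplicate wells. Signals normalised to same-plate solvent controls as percent of neutral control, and AC50 values came from Hill-equation fits of concentration-response curves.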
# [17] = target: T5, RXRB (retinoid X receptor, beta) (Homo sapiens, UniProt P28702); experiment: ATG_RXRb_TRANS: Factorial reporter gene assay (HepG2); format: cell-based; details: HepG2 reporter
# T5 construct: expressed in transfected cells; host or cells: HepG2
# T5 sequence (P28702 1-533): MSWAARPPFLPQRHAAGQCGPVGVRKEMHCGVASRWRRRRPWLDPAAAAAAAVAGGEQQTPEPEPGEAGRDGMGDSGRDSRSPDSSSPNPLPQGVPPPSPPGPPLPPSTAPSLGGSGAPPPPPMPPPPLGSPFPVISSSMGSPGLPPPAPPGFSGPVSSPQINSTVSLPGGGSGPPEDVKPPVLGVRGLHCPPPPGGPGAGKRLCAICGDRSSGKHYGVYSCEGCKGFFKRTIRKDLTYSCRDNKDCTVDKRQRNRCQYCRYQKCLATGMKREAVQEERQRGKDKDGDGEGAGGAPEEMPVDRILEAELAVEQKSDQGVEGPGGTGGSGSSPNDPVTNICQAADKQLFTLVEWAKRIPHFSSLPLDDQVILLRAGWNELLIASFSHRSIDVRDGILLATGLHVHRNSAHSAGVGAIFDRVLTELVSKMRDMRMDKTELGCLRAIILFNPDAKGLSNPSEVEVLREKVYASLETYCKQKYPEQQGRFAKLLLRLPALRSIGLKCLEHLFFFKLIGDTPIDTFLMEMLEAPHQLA
# Experimental: as §4, §5
# [18] = 2-year chronic feeding studies in both rat and mouse, ToxRefDB ref 5
smiles,measurement,setting,value
"Cc1nn(C)c(Oc2ccccc2)c1/C=N/OCc1ccc(C(=O)OC(C)(C)C)cc1 [(Z,E)-Fenpyroximate, tert-butyl 4-[({[(1E)-(1,3-dimethyl-5-phenoxy-1H-pyrazol-4-yl)methylene]amino}oxy)methyl]benzoate]",liver injury (liver histopathology),[1]; [18],negative for any liver injury
"Cc1ccc(-c2c(Cl)nc(C#N)n2S(=O)(=O)N(C)C)cc1 [Cyazofamid, 4-chloro-2-cyano-N,N-dimethyl-5-(4-methylphenyl)-1H-imidazole-1-sulfonamide]",liver injury (liver histopathology),[1]; in vivo,negative for any liver injury
"CCNC(=O)NC(=O)/C(C#N)=N/OC [Cymoxanil, (2E)-2-cyano-N-(ethylcarbamoyl)-2-(methoxyimino)acetamide]",lesion progression group (LPG),[2],Cymoxanil
"C=C(C)CN(CC)c1c([N+](=O)[O-])cc(C(F)(F)F)cc1[N+](=O)[O-] [Ethalfluralin, N-ethyl-N-(2-methylprop-2-en-1-yl)-2,6-dinitro-4-(trifluoromethyl)aniline]",liver injury (liver histopathology),[1]; [18],negative for any liver injury
"CC1(C(=O)Nc2ccc(O)c(Cl)c2Cl)CCCCC1 [Fenhexamid, N-(2,3-dichloro-4-hydroxyphenyl)-1-methylcyclohexanecarboxamide]",liver injury (liver histopathology),[1]; in vivo,negative for any liver injury
"COP(=S)(OC)Oc1ccc(SC)c(C)c1 [Fenthion, O,O-dimethyl O-[3-methyl-4-(methylthio)phenyl] thiophosphate]",liver injury (liver histopathology),[1]; [18],negative for any liver injury
"C=CCOC(Cn1ccnc1)c1ccc(Cl)cc1Cl (centres unmarked) [Imazalil, 1-[2-(allyloxy)-2-(2,4-dichlorophenyl)ethyl]-1H-imidazole]",activity with AhR,[3],some activity
same,activity with CAR,[4],some activity
same,activity with PPAR,[5],most consistently active
same,activity with PXR,[6],some activity
same,activity with SR,[7],some activity
"CCOP(=S)(OCC)Oc1nc(Cl)n(C(C)C)n1 [Isazofos, O-(5-chloro-1-isopropyl-1H-1,2,4-triazol-3-yl) O,O-diethyl thiophosphate]",liver injury (liver histopathology),[1]; [18],negative for any liver injury
"CC1(C)C(C=C(Cl)Cl)C1C(=O)OCc1cccc(Oc2ccccc2)c1 (centres unmarked) [Permethrin, [3-(phenyloxy)phenyl]methyl 3-(2,2-dichloroethenyl)-2,2-dimethylcyclopropanecarboxylate]",activity with AhR,[3],active
same,activity with CAR,[4],most consistently active
same,activity with PXR,[6],active
"CCCN(CCOc1c(Cl)cc(Cl)cc1Cl)C(=O)n1ccnc1 [Prochloraz, N-propyl-N-[2-(2,4,6-trichlorophenoxy)ethyl]-1H-imidazole-1-carboxamide]",activity with CAR,[4],most consistently active
same,activity with PXR,[6],active
"CCNP(=S)(OC)O/C(C)=C/C(=O)OC(C)C (centres unmarked) [Propetamphos, isopropyl (2E)-3-{[(ethylamino)(methoxy)phosphorothioyl]oxy}but-2-enoate]",liver injury (liver histopathology),[1]; [18],negative for any liver injury
"C#CC(C)(C)NC(=O)c1cc(Cl)cc(Cl)c1 [Propyzamide, 3,5-dichloro-N-(1,1-dimethylprop-2-yn-1-yl)benzamide]",activity with AhR,[3],active
same,activity with CAR,[4],most consistently active
same,activity with PXR,[6],active
"CCOP(=S)(Oc1cnc(C(C)(C)C)nc1)OC(C)C (centres unmarked) [Tebupirimfos, O-(2-tert-butylpyrimidin-5-yl) O-ethyl O-isopropyl thiophosphate]",liver injury (liver histopathology),[1]; [18],negative for any liver injury
O=[N+]([O-])c1c(Cl)c(Cl)c(Cl)c(Cl)c1Cl [r278],ATG_CAR_TRANS,[8],4.377
same,ATG_ERE_CIS,[9],4.854
same,ATG_PXRE_CIS,[10],4.959
same,ATG_ERa_TRANS,[11],4.284
same,CHR_Rat_Liver_3_NeoplasticLesion,[12],0
same,ATG_PPARg_TRANS,[13],4.409
same,CHR_Rat_Liver_1_AnyLesion,[14],6
same,CHR_Rat_Liver_2_PreneoplasticLesion,[15],6
same,NVS_NR_hPXR,[16],4.314
same,ATG_RXRb_TRANS,[17],4.387
